Data from patent US12275927B2, “Microbial contamination control in bioprocessing” (The Regents of the University of California, priority 2019, dated 2025).

Experiments:
[1] = tested on: RFP-expressing E. coli, OW94; conditions: read-out: chlorite IC50; OW94 negative control, growth (OD600) 24 hours at 37° C., MRM medium
Protocol: (§1) 100 μL of water was added to the negative control wells. The plate was then placed in a shaker and cultivated overnight at 37° C., 250 rpm. IC50 were determined 24 hours after inoculation by measuring OD600.

[2] = tested on: cCld expressing strain OW116
Protocol: as §1

parental LMG194 = conditions: read-out: chlorite IC50; LMG194, growth (OD600) 24 hours at 37° C., MRM medium
Protocol: as §1

wtCld-expressing OW95 = tested on: wtCld-expressing OW95
Protocol: as §1

[3] = tested on: chlorite hyper-resistant strain OW105; conditions: MRM medium
Protocol: as §1
OW95 cells were revived from freezer stocks, transferred into liquid MRM medium, and induced for Cld expression as described above.

OW116 = tested on: OW116
Protocol: (§2) A 2 L round-bottom autoclavable laboratory fermenter (BiOENGiNEERiNG), was operated as an iso-volumetric chemostat with 1 L of MRM medium in the bioreactor vessel. Temperature, dissolved oxygen (dO), and pH were monitored during the course of the experiments. Temperature was set and maintained at 37° C. pH was set to 7.2 and adjusted automatically based on the real time pH value with 1M NaOH or 1M HCl. dO was set to 20% of the maximal dO value at 37° C. with constant air flow of 2 L/min. Constant dO was maintained by automatic agitation speed adjustment based on the real-time dO value. Agitation speed varied between 200-700 RPM, depending on oxygen demand. Two separate pumps were used to control medium inflow and waste outflow rates.
(§3) The chemostat at first operated as a batch culture (dilution rate equal to 0), until the culture reached mid-log phase (OD600 of ˜0.7-1.0), then dilution rate was set to be approximately equal to the cell growth rate. This allowed the bioreactor to achieve a zero net growth while maintaining a near-maximum specific growth rate. […] All growth data were plotted and calculated using the Prism 7 software.

OW94 = tested on: OW94
Protocol: as §2, §3

[4] = tested on: C. crescentus phage CR-30; conditions: incubated with chlorite at 30 C
Protocol: (§4) Influent wastewater samples were collected from the East Bay Municipal Utility District's wastewater treatment plant in Oakland, CA, and filtered through […] filters to remove debris and microbes. To make a phage enrichment culture, 5 mL of filtered wastewater was mixed with 5 mL of 2× LB medium and inoculated with 100 μL of stationary E. coli cells, incubated for 48 hours at 37° C., 50 RPM. Next, a sterile cotton swab was dipped into an overnight E. coli culture, smeared on an LB agar plate, and 10 μL of the phage enrichment culture was then spotted on the plate. The plate was incubated overnight at 37° C. […] Phage particles from the clear zone were picked into the phage buffer (10 mM Tris, 1 mM CaCl2 10 mM MgCl2, 68 mM NaCl, pH 7.5, adapted from the Phage Hunting Program, University of Pittsburgh), followed by dilution to extinction and plating to obtain single plaques with pure phage cultures. Phage cultures were maintained at 4° C. in the phage buffer. […] Samples were taken at designated time points and mixed with PYE (0.3%) agar and log phase (OD660 0.1-04) C. crescentus culture before plating on PYE plates. Plaque forming unites were counted after 24 hours.

E. coli lytic phages = conditions: 4 mM chlorite, 37° C.
Protocol: as §4

SCW enrichment culture = conditions: 4 mM chlorite, OW117 bioreactor, SCW enrichment added
Protocol: as §2

[5] = tested on: contaminants from Strawberry Creek water; conditions: 10 mM chlorite spiked, reactor contaminated with 1% (v/v) creek water, OW115
Protocol: as §2

[6] = tested on: SCW enrichment culture, OW117 and OW118; conditions: SCW enrichment vs OW117 vs OW118
Text: as §3

Azospira suillum PS = conditions: 40 μM chlorite, unpublished observations
[7] = tested on: cld deletion (Acid) mutant; conditions: 40 μM chlorite, unpublished observations
[8] = 4 mM chlorite spiked into chemostat at equilibrium growth, 37° C.
[9] = batch cultures, different chlorite concentrations

## Sodium chlorite
[1]
  IC50: 560 µM
[2]; cCld vs wtCld
  chlorite resistance of cCld relative to wtCld: 5 fold
[2]; read-out: chlorite IC50, OW116, growth (OD600) 24 hours at 37° C., MRM medium
  IC50: 8.94 mM
Parental LMG194
  IC50: 300 µM
wtCld-expressing OW95; OW95 vs OW94 and LMG194
  increase in chlorite resistance compared to negative controls: three-fold increase
wtCld-expressing OW95; read-out: chlorite IC50, OW95, Cld induced at 26° C., growth (OD600) 24 hours at 37° C., MRM medium
  IC50: 1.74 mM
[3]; end of directed evolution, 37° C.
  chlorite concentration in which the strain was able to grow, reaching a similar final OD600 as without chlorite control: 8 mM
[3]; read-out: chlorite IC50, OW105, growth (OD600) 24 hours at 37° C.
  IC50: 4.6 mM
OW116; [8]
  specific growth rate after the chlorite spike: 0.64 ± 0.10 h⁻¹
OW116; 4 mM chlorite, chemostat, vs before spike
  reduction of specific growth rate after the chlorite spike: ~20%
OW116; [9]
  specific growth rate in batch culture as chlorite concentration increased: only reduced slightly
OW94; [8]
  specific growth rate after the chlorite spike: 0.01 ± 0.07 h⁻¹
OW94; [9]
  specific growth rate in batch culture as chlorite concentration increased: drastically decreased
[4]
  phage inactivation: chlorite-induced phage inactivation
E. coli lytic phages
  phage inactivation: chlorite-induced phage inactivation
SCW enrichment culture
  indigo production after addition of contaminants: indigo was steadily produced until the end of the experiment
[5]
  effect of chlorite spike on the contaminated bioreactor: contaminants were inhibited and washed out
[6]
  batch growth in medium with chlorite: only OW118 could endure medium with chlorite
Azospira suillum PS
  aerobic growth in the presence of chlorite: grew aerobically
[7]
  aerobic growth in the presence of chlorite: failed to grow
